The values below come from PubChem BioAssay (NCI).

Test systems include ACHN renal; HOP-62 NSCLC; IGROV1 ovarian; M14 melanoma; NCI-H226 lung; OVCAR-3 ovarian; SF-539 CNS; SN12C renal; SNB-75 CNS; UACC-62 melanoma.
Assay in all cases: DTP human tumour cell line panel, 48 h

Several values for one entry are separate records, joined by “and”; a condition that tells them apart may be missing. Equal entries are not always repeated.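 Interpolation was linear, between the two tested concentrations surrounding the appropriate level; five concentrations were tested over 48 hours in 96-well plates. At the GI50, growth is halved. TGI marks complete inhibition of growth.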

In the case of `C(=Nc1ccccc1)C1CCCC[N-]1.C(=Nc1ccccc1)C1CCCC[N-]1.[Cu+2].[O-][Cl+3]([O-])([O-])O` (stereo not given), the GI50 was 1.45 µM in the assay with ACHN renal; 15.5 µM in the assay with HOP-62 NSCLC; 14 µM in the assay on IGROV1 ovarian; 7.4 µM with M14 melanoma; 21.6 µM in the assay on NCI-H226 lung; 13 µM in the assay on OVCAR-3 ovarian. For the same compound, the GI50 with SF-539 CNS is 17.7 µM; in the assay with SN12C renal, 15.4 µM; in the assay on SNB-75 CNS, 23.6 µM; with UACC-62 melanoma, 5 µM. In addition, the TGI in the assay with ACHN renal amounted to 12.3 µM; in the assay on HOP-62 NSCLC, 54.6 µM; in the assay with IGROV1 ovarian, 47.8 µM; with M14 melanoma, 27.9 µM; in the assay on NCI-H226 lung it was 50 µM; in the assay with OVCAR-3 ovarian, 20.4 µM. For the same compound, the TGI with SF-539 CNS was determined as 42.3 µM; in the assay on SN12C renal it was 36.1 µM; in the assay with SNB-75 CNS it was 59 µM; in the assay on UACC-62 melanoma, 22.8 µM.
`COc1ccc2c(c1)C(=O)c1c-2n(CCCN)c(=O)c2ccccc12`: the GI50 was below 0.0134 µM in the assay on ACHN renal; below 0.0152 µM in the assay with HOP-62 NSCLC; below 0.0138 µM with IGROV1 ovarian; 0.0951 µM in the assay on M14 melanoma; 0.0441 µM with NCI-H226 lung; 0.0957 µM in the assay with OVCAR-3 ovarian. Besides, the 50% growth inhibitory concentration (GI50) with SF-539 CNS is 0.0609 µM; in the assay on SN12C renal, below 0.016 µM; in the assay with SNB-75 CNS it was 0.0151 µM; in the assay on UACC-62 melanoma, 0.166 µM. Besides, the concentration for total growth inhibition (TGI) with ACHN renal was 0.0408 µM; in the assay with HOP-62 NSCLC, 0.0942 µM; with IGROV1 ovarian, 0.689 µM; in the assay with M14 melanoma it was 1.53 µM; in the assay with NCI-H226 lung, 0.122 µM; with OVCAR-3 ovarian, 0.798 µM. For the same compound, the TGI in the assay with SF-539 CNS turned out to be 0.646 µM; with SN12C renal, 0.118 µM; in the assay on SNB-75 CNS, 1.54 µM; with UACC-62 melanoma it was 1.21 µM.
In the case of `CCC1(C)NN=c2s/c(=C/c3ccc(OC)cc3)c(=O)n2N1` (stereo not given), the TGI in the assay on ACHN renal, with HOP-62 NSCLC, with IGROV1 ovarian, with M14 melanoma, with NCI-H226 lung and in the assay with OVCAR-3 ovarian was above 100 µM throughout. In addition, the concentration for total growth inhibition (TGI) in the assay with SF-539 CNS, in the assay with SN12C renal, in the assay on SNB-75 CNS and with UACC-62 melanoma was above 100 µM throughout.
`C=C(Cn1c(=O)c2ccccc2c2ccccc21)c1ccc(C(=O)Nc2ccccc2N)cc1`: the GI50 was 43.4 µM in the assay on ACHN renal; 40.9 µM in the assay with HOP-62 NSCLC; 1.36 µM in the assay on IGROV1 ovarian; above 19.8 µM with M14 melanoma; 16.7 µM in the assay with NCI-H226 lung; 33.7 µM in the assay with OVCAR-3 ovarian. In addition, the GI50 is 21.9 µM in the assay with SF-539 CNS, 11.3 µM in the assay on SN12C renal, 4.41 µM in the assay on SNB-75 CNS and 24.1 µM in the assay with UACC-62 melanoma. Further, the TGI in the assay with ACHN renal is above 100 µM; with HOP-62 NSCLC it was above 100 µM; in the assay on IGROV1 ovarian it was above 29 µM; in the assay with M14 melanoma, above 100 µM; in the assay on NCI-H226 lung, above 100 µM; in the assay on OVCAR-3 ovarian, above 100 µM. Moreover, the TGI with SF-539 CNS is above 100 µM; with SN12C renal it was above 100 µM; in the assay on SNB-75 CNS it was above 94.4 µM; with UACC-62 melanoma, above 100 µM.
Regarding `O=C(NCCCCCCCCNC(=O)c1cnc2ccccc2n1)c1cnc2ccccc2n1`, the concentration for total growth inhibition (TGI) with ACHN renal, in the assay with HOP-62 NSCLC, with IGROV1 ovarian, in the assay with M14 melanoma, in the assay on NCI-H226 lung and in the assay with OVCAR-3 ovarian was above 100 µM throughout. Also, the TGI with SF-539 CNS, with SN12C renal, with SNB-75 CNS and in the assay with UACC-62 melanoma was above 100 µM throughout.
Turning to `O=C(O)CSCc1cccc2ccccc12`, the TGI in the assay on ACHN renal, in the assay on HOP-62 NSCLC, in the assay on IGROV1 ovarian, in the assay with M14 melanoma, in the assay with NCI-H226 lung and with OVCAR-3 ovarian was above 100 µM throughout. The total growth inhibition concentration (TGI) with SF-539 CNS, with SN12C renal, in the assay with SNB-75 CNS and in the assay with UACC-62 melanoma was above 100 µM each time.
As for `O=P([O-])(O)OP(=O)([O-])O.[NH-][C@H]1CCCC[C@@H]1[NH-].[OH-].[OH-].[Pt+4]`, the GI50 with ACHN renal was 16.6 µM; in the assay on HOP-62 NSCLC, 19.3 µM; in the assay on IGROV1 ovarian it was 21.8 µM; with M14 melanoma, 40.3 µM; with NCI-H226 lung, 23.2 µM; in the assay with OVCAR-3 ovarian it was 21 µM. Moreover, the GI50 is 22.3 µM in the assay with SF-539 CNS, 29.2 µM in the assay on SN12C renal, 20.4 µM in the assay with SNB-75 CNS and 22 µM in the assay on UACC-62 melanoma. For the same compound, the TGI with ACHN renal was 42.1 µM; in the assay with HOP-62 NSCLC it was 35.4 µM; with IGROV1 ovarian it was 60.4 µM; in the assay on M14 melanoma, above 100 µM; in the assay with NCI-H226 lung, 55 µM; in the assay on OVCAR-3 ovarian, 39 µM. For the same compound, the TGI with SF-539 CNS came to 57.6 µM; with SN12C renal it was 87.9 µM; with SNB-75 CNS it was 41 µM; with UACC-62 melanoma, 92.2 µM.
As to `CC(C)[C@](O)(c1ccc2cc(OC(F)F)c(OC(F)F)cc2c1)c1cn[nH]n1`, the GI50 in the assay with ACHN renal was 25.7 µM and 19.3 µM; in the assay with HOP-62 NSCLC, 17.2 µM and 15.6 µM; with IGROV1 ovarian it was 24.6 µM and 17.8 µM; in the assay on M14 melanoma, 18.5 µM and 15.4 µM; in the assay on NCI-H226 lung it was 23.1 µM and 18.9 µM; in the assay on OVCAR-3 ovarian it was 18.7 µM and 14 µM. For the same compound, the GI50 was 16.5 µM and 16.2 µM in the assay on SF-539 CNS; 19.2 µM and 15.6 µM with SN12C renal; 11.8 µM and 9.7 µM in the assay on SNB-75 CNS; 20.1 µM and 13 µM with UACC-62 melanoma. The TGI in the assay with ACHN renal was 93.3 µM and 54 µM; in the assay with HOP-62 NSCLC, 36.9 µM and 31.5 µM; with IGROV1 ovarian it was 70.7 µM and 44.5 µM; in the assay on M14 melanoma, 42.2 µM and 32.6 µM; in the assay with NCI-H226 lung it was 55.4 µM and 46.1 µM; with OVCAR-3 ovarian, 36.6 µM and 29.1 µM. In addition, the TGI in the assay with SF-539 CNS is 32.4 µM and 32.3 µM; in the assay with SN12C renal, 36.8 µM and 32.2 µM; with SNB-75 CNS, 36.1 µM and 27.1 µM; in the assay with UACC-62 melanoma it was 39.6 µM and 29.8 µM.
As to `CCOc1ccc(NC(=O)CC2SC(=Nc3ccc(Cl)cc3)NC2=O)cc1` (stereo not given), the TGI with ACHN renal, in the assay with HOP-62 NSCLC, in the assay with IGROV1 ovarian, in the assay on M14 melanoma, with NCI-H226 lung and in the assay with OVCAR-3 ovarian was above 100 µM each time. The TGI with SF-539 CNS, in the assay on SN12C renal, in the assay with SNB-75 CNS and with UACC-62 melanoma was above 100 µM throughout.

The term GI50 denotes the concentration at which growth is held to half of that of the control. By TGI is commonly meant the concentration giving total growth inhibition. A low value points to more potent growth arrest.
